Experimental data as given in patent US10590118B2, “Bicyclic heterocyclic derivatives as bromodomain inhibitors” (Orion Corporation, priority 2014, dated 2020).

biological target: T1, Bet bromodomain protein (BRD4) (Homo sapiens, UniProt O60885); assay: Bet bromodomain TR-FRET assay; assay type: binding; details: 300 nM acetyl histone peptide substrate, results given as Group A/B/C
T1 construct: made in house
Protocol: In-Vitro Biochemical Data of bicyclic heterocyclic derivatives in time-resolved fluorescence resonance energy transfer (TR-FRET) assay.
The Bet brommodomain TR-FRET assay has been used to identify compounds that bind to bet bromodomain and prevent its interaction with acetylated histone peptides.
In the assay, optimized concentration of in-house Bet bromodomain protein (BRD4) and 300 nM of acetyl histone peptide substrate were diluted in assay buffer (50 mM HEPES, pH: 7.5, 50 mM NaCl, 500 μM CHAPS) and were added to the positive control and test control wells in a 384 well plate. Substrate control wells have 300 nM of acetyl histone peptide substrate diluted in assay buffer. Buffer blank wells were added with assay buffer. The reaction mixture was allowed for incubation at room temperature for 30 mins. Stock solutions of test compounds at 20 mM DMSO are prepared. Compounds are serially diluted and added to the test wells in 384-well polypropylene plates. The reaction mixture was further incubated for 30 mins at room temperature on a plate shaker. 2 nM of Europium labeled streptavidn and 10 nM of XL-665 labeled antibody diluted in detection buffer (50 mM HEPES, pH: 7.5, 50 mM NaCl, 500 μM CHAPS and 800 mM KF) were added to all the wells excluding the buffer blank wells. The reaction plate was incubated for additional 30 mins at room temperature on plate shaker. The plate was read in Perkin Elmer WALLAC 1420 Multilabel Counter Victor 3 (Ex: 340 nm Em: 615 and 665 nm). The amount of displacement of the peptide was measured as ratio of specific 665 nm energy transfer signal to 615 nm signals. The compounds IC50 was determined by fitting the dose response data to sigmoid curve fitting equation using Graph Pad Prism software V5.

| IC50 | Structure (SMILES) |
| --- | --- |
| ≤ 1000 nM | COc1cc2c(cc1-c1c(C)noc1C)cc(CO)c(=O)n2Cc1ccccn1 [Compound 96, 6-(3,5-dimethylisoxazol-4-yl)-3-(hydroxymethyl)-7-methoxy-1-(pyridin-2-ylmethyl)quinolin-2(1H)-one] |
| 1000 to 3000 nM | Cc1noc(C)c1-c1cc2ccc(=O)n(Cc3ccccn3)c2cc1OCCN1CCCC1 [Compound 81, 6-(3,5-dimethylisoxazol-4-yl)-1-(pyridin-2-ylmethyl)-7-(2-(pyrrolidin-1-yl)ethoxy)quinolin-2(1H)-one] |
| ≤ 1000 nM | COc1cc2c(cc1-c1c(C)noc1C)OCC(=O)N2C(C)c1ccncc1 (single isomer, unassigned) [Compound 20, 7-(3,5-dimethylisoxazol-4-yl)-6-methoxy-4-(1-(pyridin-4-yl)ethyl)-2H-benzo[b][1,4]oxazin-3(4H)-one] |
| > 3000 nM | COc1cc2c(cc1-c1c(C)noc1C)OCC(=O)N2C(C)c1ccncc1 (single isomer, unassigned) [Compound 19, 7-(3,5-dimethylisoxazol-4-yl)-6-methoxy-4-(1-(pyridin-4-yl)ethyl)-2H-benzo[b][1,4]oxazin-3(4H)-one] |
| > 3000 nM | COc1cc2c(ccc(=O)n2Cc2ccccn2)cc1-n1c(C)c[nH]c1=O [Compound 91, 7-methoxy-6-(5-methyl-2-oxo-2,3-dihydro-1H-imidazol-1-yl)-1-(pyridin-2-ylmethyl)quinolin-2(1H)-one] |
| > 3000 nM | Cc1noc(C)c1-c1cc2ccc(=O)n(Cc3ccccn3)c2cc1OCCN(C)C [Compound 76, 7-(2-(dimethylamino)ethoxy)-6-(3,5-dimethylisoxazol-4-yl)-1-(pyridin-2-ylmethyl)quinolin-2(1H)-one] |
| > 3000 nM | COc1cc2c(ccc(=O)n2Cc2ccccn2)cc1-c1ccc(O)nc1 [Compound 61, 6-(6-hydroxypyridin-3-yl)-7-methoxy-1-(pyridin-2-ylmethyl)quinolin-2(1H)-one] |
| 1000 to 3000 nM | COc1ccc(CN2C(=O)COc3cc(-c4c(C)noc4C)c(OC)cc32)nc1 [Compound 30, 7-(3,5-dimethylisoxazol-4-yl)-6-methoxy-4-((5-methoxypyridin-2-yl)methyl)-2H-benzo[b][1,4]oxazin-3(4H)-one] |
| ≤ 1000 nM | COc1cc2c(cc1-c1c(C)noc1C)OCC(=O)N2Cc1ccncc1 [Compound 17, 7-(3,5-dimethylisoxazol-4-yl)-6-methoxy-4-(pyridin-4-ylmethyl)-2H-benzo[b][1,4]oxazin-3(4H)-one] |
| ≤ 1000 nM | COc1cc2c(ccc(=O)n2Cc2cccnc2)cc1-c1c(C)noc1C [Compound 36, 6-(3,5-dimethylisoxazol-4-yl)-7-methoxy-1-(pyridin-3-ylmethyl)quinolin-2(1H)-one] |
| ≤ 1000 nM | COc1cc2c(cc1-c1c(C)noc1C)OCCN2C(C)c1cccnc1 (stereo not shown) [Compound 7, 7-(3,5-dimethylisoxazol-4-yl)-6-methoxy-4-(1-(pyridin-3-yl)ethyl)-3,4-dihydro-2H-benzo[b][1,4]oxazine] |
| > 3000 nM | COc1cc2c(cc1NS(=O)(=O)c1c(C)noc1C)OCC(=O)N2Cc1ccc(Cl)cc1 [Compound 13, N-(4-(4-chlorobenzyl)-6-methoxy-3-oxo-3,4-dihydro-2H-benzo[b][1,4]oxazin-7-yl)-3,5-dimethylisoxazole-4-sulfonamide] |
| ≤ 1000 nM | COc1cc2c(ccc(=O)n2Cc2ncccn2)cc1-c1c(C)noc1C [Compound 43, 6-(3,5-dimethylisoxazol-4-yl)-7-methoxy-1-(pyrimidin-2-ylmethyl)quinolin-2(1H)-one] |
| ≤ 1000 nM | COc1cc2c(cc1-c1c(C)noc1C)OCC(=O)N2Cc1cccnc1 [Compound 21, 7-(3,5-dimethylisoxazol-4-yl)-6-methoxy-4-(pyridin-3-ylmethyl)-2H-benzo[b][1,4]oxazin-3(4H)-one] |
| > 3000 nM | COc1cc2c(cc1-c1c(C)noc1C)C(C)(C)CC(=O)N2Cc1ccccn1 [Compound 48, 6-(3,5-dimethylisoxazol-4-yl)-7-methoxy-4,4-dimethyl-1-(pyridin-2-ylmethyl)-3,4-dihydroquinolin-2(1H)-one] |
| > 3000 nM | COc1cc2c(cc1NC(=O)c1c(C)noc1C)OCC(=O)N2Cc1ccc(Cl)cc1 [Compound 94, N-(4-(4-chlorobenzyl)-6-methoxy-3-oxo-3,4-dihydro-2H-benzo [b][1,4]oxazin-7-yl)-3,5-dimethylisoxazole-4-carboxamide] |
| ≤ 1000 nM | COc1cc2c(cc1-c1c(C)noc1C)OCC(=O)N2Cc1ccc(Cl)cc1 [Compound 18, 4-(4-chlorobenzyl)-7-(3,5-dimethylisoxazol-4-yl)-6-methoxy-2H-benzo[b][1,4]oxazin-3(4H)-one] |

| IC50 | Structure (SMILES) |
| --- | --- |
| 1000 to 3000 nM | COc1cc2c(cc1-c1c(C)noc1C)c(C)cc(=O)n2Cc1ccccn1 [Compound 53, 6-(3,5-dimethylisoxazol-4-yl)-7-methoxy-4-methyl-1-(pyridin-2-ylmethyl)quinolin-2(1H)-one] |
| ≤ 1000 nM | COc1cc2c(ccc(=O)n2Cc2ccncn2)cc1-c1c(C)noc1C [Compound 44, 6-(3,5-dimethylisoxazol-4-yl)-7-methoxy-1-(pyrimidin-4-ylmethyl)quinolin-2(1H)-one] |
| ≤ 1000 nM | COc1cc2c(cc1-c1c(C)noc1C)OCC(=O)N2C(C)c1ccc(Cl)cc1 (single isomer, unassigned) [Compound 34, 4-(1-(4-chlorophenyl)ethyl)-7-(3,5-dimethylisoxazol-4-yl)-6-methoxy-2H-benzo[b][1,4]oxazin-3(4H)-one] |
| ≤ 1000 nM | COc1cc2c(ccc(=O)n2Cc2ccc(-c3cnn(C)c3)cn2)cc1-c1c(C)noc1C [Compound 98, 6-(3,5-dimethylisoxazol-4-yl)-7-methoxy-1-((5-(1-methyl-1H-pyrazol-4-yl)pyridin-2-yl)methyl)quinolin-2(1H)-one] |
| > 3000 nM | COc1cc2c(ccc(=O)n2C(=O)c2ccc(Cl)cc2)cc1-c1c(C)noc1C [Compound 15, 1-(4-chlorobenzoyl)-6-(3,5-dimethylisoxazol-4-yl)-7-methoxyquinolin-2(1H)-one] |
| > 3000 nM | COc1cc2c(cc1-c1c(C)noc1C)OCCN2C(C)c1ccc(Cl)cc1 (stereo not shown) [Compound 6, 4-(1-(4-chlorophenyl)ethyl)-7-(3,5-dimethylisoxazol-4-yl)-6-methoxy-3,4-dihydro-2H-benzo[b][1,4]oxazine] |
| > 3000 nM | COc1cc2c(cc1-c1c(C)noc1C)CC(C)(C)C(=O)N2Cc1ccccn1 [Compound 52, 6-(3,5-dimethytisoxazol-4-yl)-7-methoxy-3,3-dimethyl-1-(pyridin-2-ylmethyl)-3,4-dihydroquinolin-2(1H)-one] |
| > 3000 nM | COc1cc2c(cc1-c1c(C)noc1C)OCC(=O)N2Cc1ccc(O)nc1 [Compound 70] |
| ≤ 1000 nM | COc1cc2c(cc1-c1c(C)noc1C)cc(C1CCCCC1)c(=O)n2Cc1ccccn1 [Compound 68, 3-cyclohexyl-6-(3,5-dimethylisoxazol-4-yl)-7-methoxy-1-(pyridin-2-ylmethyl)quinolin-2(1H)-one] |
| 1000 to 3000 nM | COc1cc2c(ccc(=O)n2Cc2ccc3ccccc3n2)cc1-c1c(C)noc1C [Compound 57, 6-(3,5-dimethylisoxazol-4-yl)-7-methoxy-1-(quinolin-2-ylmethyl)quinolin-2(1H)-one] |
| ≤ 1000 nM | COc1cc2c(ccc(=O)n2Cc2ccc(F)cn2)cc1-c1c(C)noc1C [Compound 45, 6-(3,5-dimethylisoxazol-4-yl)-1-((5-fluoropyridin-2-yl)methyl)-7-methoxyquinolin-2(1H)-one] |
| ≤ 1000 nM | COc1cc2c(cc1-c1c(C)noc1C)OCCN2Cc1ccccc1N [Compound 16, 2-((7-(3,5-dimethylisoxazol-4-yl)-6-methoxy-2H-benzo[b][1,4]oxazin-4(3H)-yl)methyl)aniline] |
| 1000 to 3000 nM | COc1cc2c(ccc(=O)n2CCc2ccccn2)cc1-c1c(C)noc1C [Compound 42, 6-(3,5-dimethylisoxazol-4-yl)-7-methoxy-1-(2-(pyridin-2-yl)ethyl)quinolin-2(1H)-one] |
| ≤ 1000 nM | COc1cc2c(ccc(=O)n2C(C)c2cccnc2)cc1-c1c(C)noc1C (stereo not shown) [Compound 41, 6-(3,5-dimethylisoxazol-4-yl)-7-methoxy-1-(1-(pyridin-3-yl)ethyl)quinolin-2(1H)-one] |
| 1000 to 3000 nM | Cc1noc(C)c1-c1cc2ccc(=O)n(Cc3ccccn3)c2cc1OCC1CCOCC1 [Compound 87, 6-(3,5-dimethylisoxazol-4-yl)-1-(pyridin-2-ylmethyl)-7-((tetrahydro-2H-pyran-4-yl)methoxy)quinolin-2(1H)-one] |
| ≤ 1000 nM | COc1cc2c(ccc(=O)n2Cc2nccs2)cc1-c1c(C)noc1C [Compound 39, 6-(3,5-dimethylisoxazol-4-yl)-7-methoxy-1-(thiazol-2-ylmethyl)quinolin-2(1H)-one] |

| Structure (SMILES) | IC50 |
| --- | --- |
| CCCCOc1cc2c(ccc(=O)n2Cc2ccccn2)cc1-c1c(C)noc1C [Compound 78, 7-butoxy-6-(3,5-dimethylisoxazol-4-yl)-1-(pyridin-2-ylmethyl)quinolin-2(1H)-one] | ≤ 1000 nM |
